“And” between values parts separate entries of the source, which are not always exact repeats. Equal entries are not always repeated.
Tested on: ISG expression in SSc PBMCs
Test: SSc PBMC type I IFN signaling gene expression array, unstimulated
Format: cell-based, human
Conditions: unstimulated PBMCs from SSc patients; one value per patient (P1-P9)
Method: PBMCs in vitro experiments
Peripheral blood mononuclear cells (PBMCs) from healthy and SSc donors were separated using density gradient method (Leucosep™, Greiner Bio-One International) from EDTA anticoagulated peripheral blood; isolated cells were washed twice by PBS. PBMCs were then incubated in RPMI1640 […]
For healthy PBMCs, cells were stimulated with 20 ng/mL of IFN (+/- compounds or DMSO). For SSc PBMCs, cells were in basal conditions with no additional IFN stimulation. Cells were centrifuged at 300 g for 10 minutes. […]
RNA was extracted from cell pellets using TRIzol™ (ThermoFisher
Scientific, Waltham, MA) and processed using Quick-RNA Miniprep Kit (Zymo Research) as per the manufacturer’s instruction.
For Type I IFN signalling analysis, the human IFN I RT2 Profiler PCR Array (Qiagen, PAMM-016ZE) was performed on available RNA from healthy (n=3) and SSc (n=9) donors. RNA was converted to cDNA using RT2 First Strand Kit (Qiagen). Next, the cDNA was mixed with RT2 SYBR Green Mastermix (Qiagen, Venlo). Successful PCR performance was confirmed by assay tests for genomic DNA contamination, RNA sample quality, as well as single melt curve determination and <35 Ct for each gene, leading to validated gene expression of 67 genes. Relative expression for each gene was determined, firstly by ∆CT calculated using the geometric mean of 4 housekeeping genes (ACTB, GAPDH, HPRT1, RPLP0), followed by 2^(-∆CT), and expressed as fold change to control, according to manufacturer’s guidance. IFN2α-induced ISGs in healthy donors were determined using a Student’s t-test (two-tail distribution and equal variances) on the triplicate fold change in 2^(-ΔCT) values between […]
donors). Heatmaps were generated using the “pheatmap” function in R (v4.0.2) and RStudio (v1.3.1093) applying row scaling to standardise the expression data across samples (R core team 2020.
R Foundation for Statistical Computing). The IFN2α inducible genes determined in healthy donors […]
171-C. To account for Type I IFN signalling heterogeneity across samples, the mean 2^(-∆CT) for each […]
relative gene expression, illustrated as a fold change and visualised in log2. The Type I IFN signalling array data for the patient samples is included in Source Data Figure 6, Extended Data Fig. 9.

Cn1cc(NC(=O)c2c(Cl)cccc2Cl)c(C(=O)NC2CCN(C(=O)c3c(Cl)cccc3Cl)CC2)n1 [AP-5-145]
ADAR, Type I IFN signalling array raw data: 3.585 and 4.485 and 4.334 and 4.353 and 5.313 and 4.699 and 4.415 and 5.111 and 3.559 | BST2, Type I IFN signalling array raw data: 3.184 and 2.458 and 3.302 and 3.672 and 2.309 and 1.595 and 4.59 and 3.685 and 1.654 | CASP1, Type I IFN signalling array raw data: 1.628 and 0.9815 and 2.95 and 3.664 and 1.948 and 2.361 and 2.033 and 2.206 and 1.183 | CD86, Type I IFN signalling array raw data: 4.785 and 2.783 and 4.5852 and 3.1897 and 4.314 and 3.552 and 4.0343 and 4.013 and 3.55 | CXCL10, Type I IFN signalling array raw data: 2.8643 and 6.708 and 5.453 and 2.734 and 4.396 and 4.529 and 5.68 and 6.078 and 3.688 | DDX58, Type I IFN signalling array raw data: 2.4595 and 2.543 and 3.026 and 3.209 and 2.763 and 1.787 and 3.543 and 4.173 and 1.175 | GBP1, Type I IFN signalling array raw data: 0.1474 and 2.145 and 2.622 and 1.459 and 0.8545 and 1.754 and 2.939 and 2.1766 and -0.4621 | IFI6, Type I IFN signalling array raw data: 2.465 and 2.227 and 2.936 and 2.73 and 1.772 and 0.8033 and 3.207 and 3.6638 and 1.0872 | IFI16, Type I IFN signalling array raw data: 1.83 and 1.644 and 2.049 and 2.362 and 1.331 and 1.292 and 2.492 and 2.951 and 1.1658 | IFIH1, Type I IFN signalling array raw data: 3.174 and 3.642 and 3.693 and 3.986 and 3.429 and 3.042 and 4.0109 and 5.193 and 2.582 | IFIT1, Type I IFN signalling array raw data: 4.24 and 3.643 and 3.989 and 4.293 and 2.488 and 1.397 and 4.575 and 7.138 and 1.6699 | IFIT2, Type I IFN signalling array raw data: 3.353 and 3.202 and 2.7801 and 3.719 and 2.327 and 0.07597 and 4.728 and 5.592 and 0.851 | IFIT3, Type I IFN signalling array raw data: 2.463 and 3.281 and 3.064 and 3.575 and 3.043 and 1.248 and 5.135 and 5.476 and 1.263 | IFITM1, Type I IFN signalling array raw data: -0.2471 and 0.1243 and 0.2716 and 1.178 and 0.8183 and 0.3168 and 1.196 and 1.705 and -0.8285 | IFITM2, Type I IFN signalling array raw data: 3.999 and 3.471 and 4.22 and 5.1798 and 5.262 and 5.108 and 4.673 and 5.09 and 4.191 | IFITM3, Type I IFN signalling array raw data: 3.006 and 2.32 and 3.244 and 3.786 and 1.434 and -0.1662 and 3.42 and 4.49 and -0.2026 | IRF1, Type I IFN signalling array raw data: 1.06 and 1.224 and 2.232 and 2.144 and 1.15 and 2.067 and 2.585 and 1.973 and 0.5242 | IRF7, Type I IFN signalling array raw data: 5.407 and 5.206 and 4.576 and 6.178 and 4.455 and 3.933 and 5.89 and 5.935 and 9.933 | IRF9, Type I IFN signalling array raw data: 2.066 and 2.065 and 2.241 and 2.2692 and 1.294 and 1.106 and 2.973 and 2.809 and 0.8366 | ISG15, Type I IFN signalling array raw data: 2.596 and 6.312 and 3.3545 and 3.693 and 0.9621 and 0.3667 and 4.1244 and 6.015 and 0.1079 | ISG20, Type I IFN signalling array raw data: 2.432 and 2.479 and 2.547 and 3.375 and 2.843 and 3.174 and 3.393 and 3.464 and 1.322 | MX1, Type I IFN signalling array raw data: 4.424 and 4.226 and 3.58 and 4.634 and 2.28 and 2.399 and 4.395 and 5.558 and 2.679 | MX2, Type I IFN signalling array raw data: 4.173 and 3.658 and 2.952 and 4.357 and 2.358 and 2.074 and 3.745 and 4.851 and 2.355 | MYD88, Type I IFN signalling array raw data: 3.563 and 2.295 and 2.992 and 3.3169 and 2.321 and 1.993 and 3.136 and 2.869 and 2.18 | NMI, Type I IFN signalling array raw data: 1.73 and 1.406 and 2.205 and 1.958 and 1.878 and 1.724 and 2.633 and 2.762 and 1.099 | OAS1, Type I IFN signalling array raw data: 3.537 and 3.8519 and 3.958 and 4.26 and 2.489 and 2.393 and 5.01 and 4.925 and 2.848 | OAS2, Type I IFN signalling array raw data: 3.256 and 3.665 and 3.696 and 4.93 and 3.216 and 2.622 and 4.725 and 4.971 and 2.257 | PML, Type I IFN signalling array raw data: 3.769 and 4.451 and 4.457 and 4.682 and 3.169 and 3.581 and 5.048 and 5.21 and 2.632 | SOCS1, Type I IFN signalling array raw data: 4.276 and 3.145 and 2.943 and 3.915 and 3.6717 and 2.288 and 4.381 and 4.149 and 1.789 | STAT1, Type I IFN signalling array raw data: -1.171 and 0.5507 and 0.704 and -0.4526 and -0.2783 and 1.689 and 0.5533 and 0.2423 and -1.283 | STAT2, Type I IFN signalling array raw data: 3.543 and 4.373 and 3.597 and 3.344 and 3.627 and 3.236 and 4.148 and 3.986 and 2.129 | STAT3, Type I IFN signalling array raw data: 1.898 and 1.636 and 1.633 and 5.446 and 2.412 and 1.5196 and 2.3996 and 2.61 and 1.33 | TAP1, Type I IFN signalling array raw data: 1.436 and 1.649 and 2.5757 and 2.2546 and 2.075 and 1.836 and 3.734 and 2.309 and 0.9557 | TNFSF10, Type I IFN signalling array raw data: 2.318 and 2.989 and 3.028 and 3.374 and 2.092 and 2.434 and 3.558 and 3.768 and 2.177
